According to article PMC5662925, “Selective Targeting of Bromodomains of the Bromodomain-PHD Fingers Family Impairs Osteoclast Differentiation” (ACS Chemical Biology, 2017):

Legend:
[1] = system: human primary monocytes (PBMCs) differentiated with RANKL; experiment: Human osteoclast differentiation (TRAP-positive multinucleated cells)
[2] = system: primary murine bone marrow cells differentiated with RANKL; experiment: Murine osteoclast differentiation, TRAP stain; format: cell-based, mouse
Source text: Epigenetic mechanisms play an important role in patterning and differentiation processes, and BRPF and its associated HATs have been particularly associated with differentiation of hematopoietic cells. Given our interest in bone biology, and the hematopoietic origin of the osteoclast, we investigated the potential role of the targeted bromodomains in osteoclastogenesis in mouse and human cells. Bone marrow mononuclear cells were isolated from wild-type mice, cultivated for 5 days in the presence of CSF-1, and replated in the presence of RANKL for differentiation into osteoclasts,[28] either with DMSO as a control or with varying doses of the BRPF inhibitors. […] To understand the molecular basis for this observation, we investigated the expression of several osteoclast marker genes using qPCR. […] To further investigate other osteoclast-specific effects of the BRPF inhibitors on gene transcription, we profiled genome-wide expression with Illumina MouseWG-6 v2.0 Expression BeadChips at different time points.

BRPF2 = biological target: T1, BRPF2 (Homo sapiens, UniProt O95696); experiment: Isothermal titration calorimetry (ITC); format: binding; conditions: ITC data
T1 construct: All recombinant bromodomains were expressed as described in Filippakopoulos et al; made in house
T1 sequence (O95696 562-666 limits assumed): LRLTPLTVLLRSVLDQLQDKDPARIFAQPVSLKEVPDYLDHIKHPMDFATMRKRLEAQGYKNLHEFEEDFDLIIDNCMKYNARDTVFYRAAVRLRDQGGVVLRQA

[3] = system: osteoclast marker genes (TRAP, CATK, CA2, NFATC1, OC-STAMP) in murine BMCs; experiment: qPCR of osteoclast marker genes in murine BMCs; format: cell-based, mouse; conditions: 10 ng/mL RANKL, 1 μM and 2 μM, 0-3 days
[4] = system: NFATC1 protein level in murine BMCs; experiment: Western blot of NFATC1 in murine BMCs; format: cell-based, mouse; conditions: 10 ng/mL RANKL, 1 μM and 2 μM
Source text: Figure 5 BRPF1B binding partners and effect of BRPF bromodomain inhibition on gene transcription during mouse osteoclastogenesis. […] The color of the circle represents the absolute spectral counts observed for the prey proteins. The circle size indicates the quantitative enrichment of a prey across all baits tested while the estimated FDR for the interaction is shown as the color of the circle edge. (B) Inhibition of murine osteoclast differentiation by panBRPF bromodomain inhibition. […] Bar scale indicates 200 μm. […] Data were normalized to day 0 of RANKL treatment. […] LaminB1 was used as a loading control.
Murine osteoclast-like cells were PBS washed, homogenized and lysed in RIPA buffer (50 mM Tris-HCl, pH 7.4; 150 mM NaCl; 1% NP-40; 0.5% Na-deoxycholate; 0.1% SDS; 2 mM EDTA; 10 mM NaF) containing protease inhibitors (Pierce, according to manufacturer’s specifications) with a 1 mL syringe and a 23-gauge needle. After centrifugation at 15 000 rpm at 4 °C for 10 min, supernatants were frozen at −80 °C. Protein concentrations were assayed using a Pierce BCA Kit, and 30 μg of protein per lane was subjected on 10% SDS gel. […] Absorbance was measured at 440 nm.

BRD4(1) = BRD4(1) (Homo sapiens, UniProt O60885); experiment: Temperature shift assay (ΔTm); format: binding; conditions: 10 µM compound
[5] = system: human osteoclast-like cells on dentine slices; experiment: Bone resorption on dentine slices; conditions: 1 μM
[6] = system: MMP9 secretion by human RANKL-induced osteoclasts; experiment: MMP9 ELISA of human osteoclast supernatant; format: cell-based; conditions: 1.25 μM, 7 days or 11 days
[7] = system: RANKL-induced expression of Ppap2a and SphK1; experiment: Microarray genome-wide expression in murine BMCs; format: cell-based, mouse; conditions: 2 μM
Experimental: (A) Heat map of the top 25 significant differentially expressed genes between DMSO and OF-1-treated BMCs based on sorted average p-value for the time points 48 and 72 h. Red indicates higher; blue indicates lower expression. See also, Supporting Information Figures 3 and 4.
Murine bone marrow stem cells were differentiated into osteoclast-like cells as described above. Cells were PBS-washed and lysed in RLT-Buffer (including 2-Mercaptoethanol; Qiagen, UK), and RNA was isolated via RNeasy Plus Mini Kit (Quiagen, UK). After confirmation of RNA quality (RIN = 2 ± 0.1), cDNA synthesis of approximately 1000 ng of RNA with a High Capacity cDNA Reverse Transcription Kit (Applied Biosystems, UK) was carried out. A total of 500 ng/μL cDNA was subjected to MouseWG-6 v2.0 Expression BeadChips (Illumina) at the Department of Pathology, University of Cambridge. Microarray data are available in the ArrayExpress database (www.ebi.ac.uk/arrayexpress) under accession number E-MTAB-4155. Gene expression data underwent log2 transformation and quantile normalization. Genes were filtered based on their variation across the experiments, i.e., excluding genes with a standard deviation of expression lower than 0.1. For genes with multiple probes, only the highest variable probe was selected for further analysis. […]

[8] = system: human osteoclast-like cells on bone mineral substrate; experiment: Bone resorption, Osteosurface assay (hydroxyapatite); format: cell-based
Source text: Dentine pits were imaged with confocal microscopy.

[9] = system: murine monocytic RAW246.7 cells; experiment: Proliferation / cell count of RAW cells; format: cell-based, mouse; conditions: 72 h treatment, 10 µM, n = 4, t-test p = 0.73
Experimental: Supplementary Figure 4: Inhibition of murine osteoclast differentiation. A) TRAP stain of primary murine bone marrow cells (BMCs) differentiated into osteoclasts for 3 days with RANKL plus either the treatment with DMSO or NIL57 at 1 µM. Bar scale indicates 200 µm. […]
treated bone marrow cells after 1, 2 and 3 days of differentiation as compared to bone marrow cells before RANKL treatment start. C.) Count of RAW cells after 72 h treatment […]
content of primary mouse BMCs treated for 0, 1, 2 and 3 days with either without or with 1

SMILES	fusion into multinucleated osteoclast-like cells [1]	number of multinucleated TRAP positive cells [2]	weaker potency for BRPF2 (vs BRPF1B) (BRPF2)	expression of osteoclast marker genes (qPCR) [3]	NFATC1 protein level [4]	ΔTm at 10 µM (BRD4(1))	resorption of dentine [5]	MMP9 secretion [6]	RANKL-induced expression of Ppap2a and SphK1 [7]	pit formation on hydroxyapatite (Osteosurface assay) [8]	Count of RAW cells vs DMSO [9]
COc1cc2c(cc1NS(=O)(=O)c1ccc(Br)cc1C)n(C)c(=O)n2C [OF-1]	completely suppress	significant reductions	5 fold	significant reductions	strong down-regulation	2.1 °C	complete block	significant reductions	significantly down-regulated	significant reduction	no significant difference
COc1ccccc1C(=O)Nc1cc2c(cc1N1CCCC1)n(C)c(=O)n2C [PFI-4]	–	–	–	–	–	–	–	significant reductions	–	–	–
